From ChEMBL document CHEMBL3885881, “DrugMatrix”

Organism: Rattus norvegicus
Experiment: DrugMatrix - Regimen: Daily Repeat
Format: toxicity, organism-based, Sprague-Dawley
Design: regimen Daily Repeat, gender Male, age 6-8 weeks
Details: in vivo, sc, route subcutaneous, vehicle 100 % WATER; for ABSOLUTE BASOPHIL / ABSOLUTE EOSINOPHIL / ABSOLUTE LYMPHOCYTE / ABSOLUTE MONOCYTE / ABSOLUTE SEGMENTED NEUTROPHIL / BASOPHIL / EOSINOPHIL / ERYTHROCYTE COUNT / HEMATOCRIT / HEMOGLOBIN / LEUKOCYTE COUNT / LYMPHOCYTE / MEAN CORPUSCULAR HEMOGLOBIN / MEAN CORPUSCULAR HEMOGLOBIN CONCENTRATION / MEAN CORPUSCULAR VOLUME / MONOCYTE / NEUTROPHIL / NUCLEATED RED BLOOD CELLS / PLATELET COUNT: tissue Blood; for ALANINE AMINOTRANSFERASE / ALBUMIN / ALKALINE PHOSPHATASE / ASPARTATE AMINOTRANSFERASE / BLOOD UREA NITROGEN / CARBON DIOXIDE / CHLORIDE / CHOLESTEROL / CREATINE PHOSPHOKINASE / CREATININE / GLUCOSE / LACTATE DEHYDROGENASE / LIPASE / PHOSPHORUS / POTASSIUM / SODIUM / TOTAL BILIRUBIN / TOTAL PROTEIN / URIC ACID: tissue Plasma
[1] = 20 mg/kg, 72 h, dose level Low, time 3 day
[2] = 20 mg/kg, 120 h, dose level Low, time 5 day
[3] = 71 mg/kg, 72 h, dose level High, time 3 day
[4] = 71 mg/kg, 120 h, dose level High, time 5 day

Structure (SMILES): CCN(CC)CC(=O)Nc1c(C)cccc1C [LIDOCAINE]
- ABSOLUTE BASOPHIL [1]: 0 CELLS/uL
- ABSOLUTE EOSINOPHIL [1]: 58 CELLS/uL
- ABSOLUTE LYMPHOCYTE [1]: 13101.33 CELLS/uL
- ABSOLUTE MONOCYTE [1]: 107 CELLS/uL
- ABSOLUTE SEGMENTED NEUTROPHIL [1]: 1100.33 CELLS/uL
- BASOPHIL [1]: 0%
- EOSINOPHIL [1]: 0.33%
- ERYTHROCYTE COUNT [1]: 5.32 x10E6/uL
- HEMATOCRIT [1]: 35.17%
- HEMOGLOBIN [1]: 13.77 G/DL
- LEUKOCYTE COUNT [1]: 14.37 x10E3/uL
- LYMPHOCYTE [1]: 91.33%
- MEAN CORPUSCULAR HEMOGLOBIN [1]: 25.9 pg
- MEAN CORPUSCULAR HEMOGLOBIN CONCENTRATION [1]: 39.17 G/DL
- MEAN CORPUSCULAR VOLUME [1]: 66.2 fL
- MONOCYTE [1]: 0.67%
- NEUTROPHIL [1]: 7.67%
- NUCLEATED RED BLOOD CELLS [1]: 0 /100WBC
- PLATELET COUNT [1]: 1245 x10E3/uL
- ALANINE AMINOTRANSFERASE [1]: 52.67 u/L
- ALBUMIN [1]: 4.23 G/DL
- ALKALINE PHOSPHATASE [1]: 369 u/L
- ASPARTATE AMINOTRANSFERASE [1]: 87.33 u/L
- BLOOD UREA NITROGEN [1]: 16 mg/dL
- CARBON DIOXIDE [1]: 26.67 mmol/L
- CHLORIDE [1]: 102.67 MEQ/L
- CHOLESTEROL [1]: 79.33 mg/dL
- CREATINE PHOSPHOKINASE [1]: 215.67 u/L
- CREATININE [1]: 0.21 mg/dL
- GLUCOSE [1]: 154.67 mg/dL
- LACTATE DEHYDROGENASE [1]: 355.67 u/L
- LIPASE [1]: 9.67 u/L
- PHOSPHORUS [1]: 15.3 mg/dL
- POTASSIUM [1]: 7.3 MEQ/L
- SODIUM [1]: 148.67 MEQ/L
- TOTAL BILIRUBIN [1]: 0.23 mg/dL
- TOTAL PROTEIN [1]: 6.03 G/DL
- URIC ACID [1]: 1.9 mg/dL
- ABSOLUTE BASOPHIL [2]: 0 CELLS/uL
- ABSOLUTE EOSINOPHIL [2]: 102.67 CELLS/uL
- ABSOLUTE LYMPHOCYTE [2]: 14629.33 CELLS/uL
- ABSOLUTE MONOCYTE [2]: 338.67 CELLS/uL
- ABSOLUTE SEGMENTED NEUTROPHIL [2]: 1862.67 CELLS/uL
- BASOPHIL [2]: 0%
- EOSINOPHIL [2]: 0.67%
- ERYTHROCYTE COUNT [2]: 5.48 x10E6/uL
- HEMATOCRIT [2]: 33.93%
- HEMOGLOBIN [2]: 13.57 G/DL
- LEUKOCYTE COUNT [2]: 16.93 x10E3/uL
- LYMPHOCYTE [2]: 86.67%
- MEAN CORPUSCULAR HEMOGLOBIN [2]: 24.77 pg
- MEAN CORPUSCULAR HEMOGLOBIN CONCENTRATION [2]: 40 G/DL
- MEAN CORPUSCULAR VOLUME [2]: 61.93 fL
- MONOCYTE [2]: 2%
- NEUTROPHIL [2]: 10.67%
- NUCLEATED RED BLOOD CELLS [2]: 0 /100WBC
- PLATELET COUNT [2]: 1256.33 x10E3/uL
- ALANINE AMINOTRANSFERASE [2]: 59.33 u/L
- ALBUMIN [2]: 3.73 G/DL
- ALKALINE PHOSPHATASE [2]: 375.67 u/L
- ASPARTATE AMINOTRANSFERASE [2]: 92 u/L
- BLOOD UREA NITROGEN [2]: 17.67 mg/dL
- CARBON DIOXIDE [2]: 26 mmol/L
- CHLORIDE [2]: 108 MEQ/L
- CHOLESTEROL [2]: 77.33 mg/dL
- CREATINE PHOSPHOKINASE [2]: 284 u/L
- CREATININE [2]: 0.28 mg/dL
- GLUCOSE [2]: 183.33 mg/dL
- LACTATE DEHYDROGENASE [2]: 154.67 u/L
- LIPASE [2]: 7.67 u/L
- PHOSPHORUS [2]: 13.6 mg/dL
- POTASSIUM [2]: 6.31 MEQ/L
- SODIUM [2]: 149.97 MEQ/L
- TOTAL BILIRUBIN [2]: 0.2 mg/dL
- TOTAL PROTEIN [2]: 5.93 G/DL
- URIC ACID [2]: 2.2 mg/dL
- ABSOLUTE BASOPHIL [3]: 0 CELLS/uL
- ABSOLUTE EOSINOPHIL [3]: 49.33 CELLS/uL
- ABSOLUTE LYMPHOCYTE [3]: 11993.67 CELLS/uL
- ABSOLUTE MONOCYTE [3]: 172.33 CELLS/uL
- ABSOLUTE SEGMENTED NEUTROPHIL [3]: 684.67 CELLS/uL
- BASOPHIL [3]: 0%
- EOSINOPHIL [3]: 0.33%
- ERYTHROCYTE COUNT [3]: 5.73 x10E6/uL
- HEMATOCRIT [3]: 35.87%
- HEMOGLOBIN [3]: 14.23 G/DL
- LEUKOCYTE COUNT [3]: 12.9 x10E3/uL
- LYMPHOCYTE [3]: 92.67%
- MEAN CORPUSCULAR HEMOGLOBIN [3]: 24.83 pg
- MEAN CORPUSCULAR HEMOGLOBIN CONCENTRATION [3]: 39.7 G/DL
- MEAN CORPUSCULAR VOLUME [3]: 62.57 fL
- MONOCYTE [3]: 1.33%
- NEUTROPHIL [3]: 5.67%
- NUCLEATED RED BLOOD CELLS [3]: 0 /100WBC
- PLATELET COUNT [3]: 1268.67 x10E3/uL
- ALANINE AMINOTRANSFERASE [3]: 46.33 u/L
- ALBUMIN [3]: 4.37 G/DL
- ALKALINE PHOSPHATASE [3]: 401 u/L
- ASPARTATE AMINOTRANSFERASE [3]: 83.67 u/L
- BLOOD UREA NITROGEN [3]: 14.67 mg/dL
- CARBON DIOXIDE [3]: 31.33 mmol/L
- CHLORIDE [3]: 101 MEQ/L
- CHOLESTEROL [3]: 76 mg/dL
- CREATINE PHOSPHOKINASE [3]: 167 u/L
- CREATININE [3]: 0.16 mg/dL
- GLUCOSE [3]: 163.67 mg/dL
- LACTATE DEHYDROGENASE [3]: 124.67 u/L
- LIPASE [3]: 8.67 u/L
- PHOSPHORUS [3]: 15.9 mg/dL
- POTASSIUM [3]: 7.01 MEQ/L
- SODIUM [3]: 145.9 MEQ/L
- TOTAL BILIRUBIN [3]: 0.17 mg/dL
- TOTAL PROTEIN [3]: 6.07 G/DL
- URIC ACID [3]: 1.8 mg/dL
- ABSOLUTE BASOPHIL [4]: 0 CELLS/uL
- ABSOLUTE EOSINOPHIL [4]: 73.33 CELLS/uL
- ABSOLUTE LYMPHOCYTE [4]: 17902.33 CELLS/uL
- ABSOLUTE MONOCYTE [4]: 276 CELLS/uL
- ABSOLUTE SEGMENTED NEUTROPHIL [4]: 1781.67 CELLS/uL
- BASOPHIL [4]: 0%
- EOSINOPHIL [4]: 0.33%
- ERYTHROCYTE COUNT [4]: 5.66 x10E6/uL
- HEMATOCRIT [4]: 36.7%
- HEMOGLOBIN [4]: 14.53 G/DL
- LEUKOCYTE COUNT [4]: 20.03 x10E3/uL
- LYMPHOCYTE [4]: 89%
- MEAN CORPUSCULAR HEMOGLOBIN [4]: 25.67 pg
- MEAN CORPUSCULAR HEMOGLOBIN CONCENTRATION [4]: 39.6 G/DL
- MEAN CORPUSCULAR VOLUME [4]: 64.93 fL
- MONOCYTE [4]: 1.33%
- NEUTROPHIL [4]: 9.33%
- NUCLEATED RED BLOOD CELLS [4]: 0 /100WBC
- PLATELET COUNT [4]: 1384.67 x10E3/uL
- ALANINE AMINOTRANSFERASE [4]: 60 u/L
- ALBUMIN [4]: 4.13 G/DL
- ALKALINE PHOSPHATASE [4]: 376.33 u/L
- ASPARTATE AMINOTRANSFERASE [4]: 98.33 u/L
- BLOOD UREA NITROGEN [4]: 15.33 mg/dL
- CARBON DIOXIDE [4]: 33.67 mmol/L
- CHLORIDE [4]: 101 MEQ/L
- CHOLESTEROL [4]: 68.33 mg/dL
- CREATINE PHOSPHOKINASE [4]: 240.33 u/L
- CREATININE [4]: 0.42 mg/dL
- GLUCOSE [4]: 147.33 mg/dL
- LACTATE DEHYDROGENASE [4]: 198 u/L
- LIPASE [4]: 10.67 u/L
- PHOSPHORUS [4]: 14.23 mg/dL
- POTASSIUM [4]: 6.88 MEQ/L
- SODIUM [4]: 148.27 MEQ/L
- TOTAL BILIRUBIN [4]: 0.2 mg/dL
- TOTAL PROTEIN [4]: 6.17 G/DL
- URIC ACID [4]: 1.4 mg/dL
